Tests used:
[1] = molecular target: VEGF-receptor 2 and tyrosine-protein kinase SRC (Homo sapiens) (UniProt P12931+P35968); experiment: Selectivity for VEGF-receptor 2 over c-Src tyrosine kinase; format: protein assay
[2] = molecular target: VEGF-receptor 2 and Fibroblast growth factor receptor 1 (Homo sapiens) (UniProt P35968+P11362); experiment: Selectivity for VEGF-receptor 2 over fibroblast growth factor receptor 1; format: protein assay
[3] = molecular target: VEGF-receptor 2 and PDGF-receptor beta (KDR and PDGFR beta) (Homo sapiens) (UniProt P09619+P35968); experiment: Selectivity for VEGFR2 over platelet-derived growth factor receptor beta
VEGF-receptor 2 and PDGF-receptor beta (KDR and PDGFR beta) (Homo sapiens), sequence (P09619 whole entry, looked up): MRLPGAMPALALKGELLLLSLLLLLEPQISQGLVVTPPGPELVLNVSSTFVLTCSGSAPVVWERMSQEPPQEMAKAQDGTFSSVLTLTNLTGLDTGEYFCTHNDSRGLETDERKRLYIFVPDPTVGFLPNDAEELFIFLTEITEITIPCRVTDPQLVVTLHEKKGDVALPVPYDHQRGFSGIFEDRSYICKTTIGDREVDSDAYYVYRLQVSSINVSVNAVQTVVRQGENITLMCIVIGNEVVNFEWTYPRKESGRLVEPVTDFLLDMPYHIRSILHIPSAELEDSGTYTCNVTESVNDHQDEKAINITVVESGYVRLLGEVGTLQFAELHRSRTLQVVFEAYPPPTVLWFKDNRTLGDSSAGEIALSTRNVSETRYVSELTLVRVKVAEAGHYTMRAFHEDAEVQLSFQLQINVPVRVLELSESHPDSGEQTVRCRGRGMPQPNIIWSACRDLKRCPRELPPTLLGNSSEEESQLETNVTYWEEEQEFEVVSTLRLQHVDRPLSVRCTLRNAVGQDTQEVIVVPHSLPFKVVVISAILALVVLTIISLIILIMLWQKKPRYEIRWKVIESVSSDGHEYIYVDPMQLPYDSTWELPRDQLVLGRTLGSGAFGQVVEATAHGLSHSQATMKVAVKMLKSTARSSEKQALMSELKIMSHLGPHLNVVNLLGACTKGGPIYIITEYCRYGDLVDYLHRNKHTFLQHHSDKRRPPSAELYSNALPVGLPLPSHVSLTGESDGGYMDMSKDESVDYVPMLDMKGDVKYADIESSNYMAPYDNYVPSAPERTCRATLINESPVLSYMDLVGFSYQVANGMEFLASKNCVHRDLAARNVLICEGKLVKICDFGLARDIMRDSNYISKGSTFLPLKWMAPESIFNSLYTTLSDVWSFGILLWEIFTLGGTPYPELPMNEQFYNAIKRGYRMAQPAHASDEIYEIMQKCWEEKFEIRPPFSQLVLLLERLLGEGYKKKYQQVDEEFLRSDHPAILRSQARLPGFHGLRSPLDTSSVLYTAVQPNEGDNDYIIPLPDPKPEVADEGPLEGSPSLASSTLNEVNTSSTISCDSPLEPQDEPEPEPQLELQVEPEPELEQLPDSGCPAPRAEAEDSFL
VEGF-receptor 2 and PDGF-receptor beta (KDR and PDGFR beta) (Homo sapiens), sequence (P35968 whole entry, looked up): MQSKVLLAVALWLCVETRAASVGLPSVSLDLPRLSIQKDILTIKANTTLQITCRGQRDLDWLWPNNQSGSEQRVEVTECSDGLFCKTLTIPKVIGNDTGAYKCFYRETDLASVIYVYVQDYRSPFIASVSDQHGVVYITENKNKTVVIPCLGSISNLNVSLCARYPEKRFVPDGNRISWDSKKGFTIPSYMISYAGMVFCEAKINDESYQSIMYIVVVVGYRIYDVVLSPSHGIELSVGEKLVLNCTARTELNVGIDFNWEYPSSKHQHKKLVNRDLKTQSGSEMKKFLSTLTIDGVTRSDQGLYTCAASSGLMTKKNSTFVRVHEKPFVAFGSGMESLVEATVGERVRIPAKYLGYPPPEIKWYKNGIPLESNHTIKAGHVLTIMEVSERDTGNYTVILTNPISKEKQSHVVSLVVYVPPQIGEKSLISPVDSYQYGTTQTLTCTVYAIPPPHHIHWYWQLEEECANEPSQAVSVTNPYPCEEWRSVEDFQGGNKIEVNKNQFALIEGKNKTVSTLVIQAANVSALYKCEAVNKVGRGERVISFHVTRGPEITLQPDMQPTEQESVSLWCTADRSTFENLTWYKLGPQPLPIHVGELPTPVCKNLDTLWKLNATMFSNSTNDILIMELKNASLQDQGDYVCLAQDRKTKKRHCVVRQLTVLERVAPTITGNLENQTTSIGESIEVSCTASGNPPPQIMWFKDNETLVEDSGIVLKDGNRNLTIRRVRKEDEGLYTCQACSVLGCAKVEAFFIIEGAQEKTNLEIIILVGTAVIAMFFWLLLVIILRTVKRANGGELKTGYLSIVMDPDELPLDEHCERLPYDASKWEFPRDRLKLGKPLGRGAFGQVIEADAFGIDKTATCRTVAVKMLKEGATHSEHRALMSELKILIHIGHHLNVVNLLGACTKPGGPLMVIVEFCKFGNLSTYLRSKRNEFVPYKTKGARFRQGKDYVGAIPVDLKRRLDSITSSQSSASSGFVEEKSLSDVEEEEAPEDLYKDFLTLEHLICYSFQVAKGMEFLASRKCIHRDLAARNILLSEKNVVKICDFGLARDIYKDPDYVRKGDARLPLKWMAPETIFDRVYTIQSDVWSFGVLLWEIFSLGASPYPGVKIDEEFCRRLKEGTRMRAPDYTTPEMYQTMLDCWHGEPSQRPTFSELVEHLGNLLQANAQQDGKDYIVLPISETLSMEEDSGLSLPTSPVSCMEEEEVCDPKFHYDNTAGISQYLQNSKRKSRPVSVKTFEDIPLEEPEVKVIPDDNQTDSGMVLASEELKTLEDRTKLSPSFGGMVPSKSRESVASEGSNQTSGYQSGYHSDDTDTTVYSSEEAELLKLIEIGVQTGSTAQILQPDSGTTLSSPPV

[4] = molecular target: Fibroblast growth factor receptor 4 (Homo sapiens) (UniProt P22455); experiment: Selectivity for fibroblast growth factor receptor 4
[5] = molecular target: T1, Vascular endothelial growth factor receptor 2 (Homo sapiens, UniProt P35968); experiment: Inhibition of VEGF stimulated phosphorylation of KDR on tyrosine residues in human kidney cells expressing vascular endothelial growth factor receptor 2; format: cell-based
T1 sequence (P35968 whole entry): as the sequence (P35968 whole entry, looked up) above

[6] = molecular target: Vascular endothelial growth factor receptor 2 and 3 (KDR and Flt-4) (Homo sapiens) (UniProt P35916+P35968); experiment: Selectivity of for VEGF-receptor 2 over fms-like tyrosine kinase-4, VEGF-receptor 3; format: protein assay
[7] = molecular target: Vascular endothelial growth factor receptor 1 and 2 (Flt-1 and KDR) (Homo sapiens) (UniProt P17948+P35968); experiment: Selectivity for VEGF-receptor 2 over fms-like tyrosine kinase 1, VEGF-receptor 1; format: protein assay
Vascular endothelial growth factor receptor 1 and 2 (Flt-1 and KDR) (Homo sapiens), sequence (P17948 whole entry, looked up): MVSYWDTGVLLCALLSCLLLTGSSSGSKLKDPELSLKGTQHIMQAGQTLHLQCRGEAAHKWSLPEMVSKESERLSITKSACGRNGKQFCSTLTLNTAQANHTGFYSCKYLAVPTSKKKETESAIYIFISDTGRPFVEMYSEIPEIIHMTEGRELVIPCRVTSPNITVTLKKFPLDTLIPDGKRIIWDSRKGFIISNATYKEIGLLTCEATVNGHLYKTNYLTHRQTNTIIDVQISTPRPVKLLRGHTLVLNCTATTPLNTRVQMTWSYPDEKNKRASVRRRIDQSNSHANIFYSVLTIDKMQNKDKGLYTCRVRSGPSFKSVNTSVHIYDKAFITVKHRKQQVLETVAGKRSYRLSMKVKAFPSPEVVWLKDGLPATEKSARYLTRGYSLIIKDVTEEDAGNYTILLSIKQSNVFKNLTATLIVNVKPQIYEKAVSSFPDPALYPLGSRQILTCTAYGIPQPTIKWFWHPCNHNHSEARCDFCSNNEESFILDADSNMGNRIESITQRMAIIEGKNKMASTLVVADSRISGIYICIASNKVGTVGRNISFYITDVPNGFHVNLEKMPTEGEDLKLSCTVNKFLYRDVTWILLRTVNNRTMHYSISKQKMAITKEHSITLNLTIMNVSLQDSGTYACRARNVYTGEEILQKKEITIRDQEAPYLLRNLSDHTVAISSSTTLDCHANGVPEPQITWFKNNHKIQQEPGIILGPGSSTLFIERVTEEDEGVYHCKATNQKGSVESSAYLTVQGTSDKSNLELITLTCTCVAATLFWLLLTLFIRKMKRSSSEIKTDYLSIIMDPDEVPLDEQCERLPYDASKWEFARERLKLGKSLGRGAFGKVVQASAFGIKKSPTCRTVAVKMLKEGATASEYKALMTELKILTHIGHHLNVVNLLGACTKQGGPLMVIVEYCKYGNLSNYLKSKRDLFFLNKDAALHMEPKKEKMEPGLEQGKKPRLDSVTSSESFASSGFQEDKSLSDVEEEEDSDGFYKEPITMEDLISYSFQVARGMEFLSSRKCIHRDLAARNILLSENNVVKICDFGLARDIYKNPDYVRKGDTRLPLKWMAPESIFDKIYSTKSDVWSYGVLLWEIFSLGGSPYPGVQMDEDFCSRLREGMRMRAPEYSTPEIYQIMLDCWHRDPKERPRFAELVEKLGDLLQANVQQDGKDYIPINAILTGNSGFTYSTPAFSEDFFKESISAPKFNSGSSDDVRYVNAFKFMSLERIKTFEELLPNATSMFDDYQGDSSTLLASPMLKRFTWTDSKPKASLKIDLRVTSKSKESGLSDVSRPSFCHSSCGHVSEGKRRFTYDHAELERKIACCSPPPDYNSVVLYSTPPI
Vascular endothelial growth factor receptor 1 and 2 (Flt-1 and KDR) (Homo sapiens), sequence (P35968 whole entry, looked up): as the sequence (P35968 whole entry, looked up) above

[8] = molecular target: T1, Vascular endothelial growth factor receptor 2; experiment: Intrinsic potency against VEGF stimulated KDR phosphorylation; format: functional
[9] = molecular target: T1, Vascular endothelial growth factor receptor 2; experiment: Inhibition of phosphorylation of poly-Glu/Tyr (4:1) peptide substrate by VEGF-receptor 2 (KDR) kinase

VEGF-receptor 2 and tyrosine-protein kinase SRC (Homo sapiens), sequence (P12931 whole entry, looked up): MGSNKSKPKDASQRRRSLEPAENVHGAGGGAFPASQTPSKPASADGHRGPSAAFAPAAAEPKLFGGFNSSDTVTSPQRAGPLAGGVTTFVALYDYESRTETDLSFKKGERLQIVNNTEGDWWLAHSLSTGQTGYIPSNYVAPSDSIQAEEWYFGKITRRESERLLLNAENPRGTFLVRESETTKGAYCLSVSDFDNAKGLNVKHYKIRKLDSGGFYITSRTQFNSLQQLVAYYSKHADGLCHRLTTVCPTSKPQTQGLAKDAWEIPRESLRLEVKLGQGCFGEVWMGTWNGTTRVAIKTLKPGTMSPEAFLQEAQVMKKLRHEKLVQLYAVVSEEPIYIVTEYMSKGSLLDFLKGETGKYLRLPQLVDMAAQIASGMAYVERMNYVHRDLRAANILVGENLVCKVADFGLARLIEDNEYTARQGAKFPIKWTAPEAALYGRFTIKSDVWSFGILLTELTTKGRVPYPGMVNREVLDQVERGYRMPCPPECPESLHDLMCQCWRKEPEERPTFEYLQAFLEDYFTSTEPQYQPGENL
VEGF-receptor 2 and tyrosine-protein kinase SRC (Homo sapiens), sequence (P35968 whole entry, looked up): as the sequence (P35968 whole entry, looked up) above

SMILES | IC50 [5] | IC50 [8] | other results
c1ccc(-c2ccn3c(-c4ccccc4)cnc3c2)cc1 | 98 nM |  | 
COc1ccc(-c2cnc3cc(-c4ccccc4)ccn23)cn1 |  |  | IC50 [9]: 2840 nM
CC(=O)N1CCN(Cc2ccc(-c3ccn4c(-c5ccccc5)cnc4c3)cc2)CC1 | 77 nM | 300 nM | 
COCCN(C)CCCn1ccc(-c2ccn3c(-c4ccccc4)cnc3c2)cc1=O | 96 nM |  | 
COc1cccc(-c2cnc3cc(-c4ccccc4)ccn23)n1 | 242 nM |  | 
c1ccc(-c2ccn3c(-c4cncs4)cnc3c2)cc1 | 99 nM |  | 
c1ccc(-c2ccn3c(-c4cccnc4)cnc3c2)cc1 | 930 nM |  | 
O=c1cc(-c2ccn3c(-c4ccccc4)cnc3c2)ccn1CCCO | 120 nM |  | 
NC(=O)N1CCN(Cc2ccc(-c3ccn4c(-c5ccccc5)cnc4c3)cc2)CC1 | 69 nM |  | 
c1ccc(-c2ccn3c(-c4ccncc4)cnc3c2)cc1 | 145 nM |  | 

Second part, led by results:

IC50 [5] | IC50 [8] | SMILES | other results
42 nM |  | c1ccc(-c2ccn3c(-c4nccs4)cnc3c2)cc1 | Selectivity [1]: 165; Selectivity [2]: 47; Selectivity [3]: 1.4; Selectivity [4]: 23; Selectivity [6]: 1.7; Selectivity [7]: 7
28 nM | 51 nM | O=c1cc(-c2ccn3c(-c4ccccc4)cnc3c2)ccn1CCCN1CCCCC1 | Selectivity [1]: 68; Selectivity [2]: 60; Selectivity [3]: 1; Selectivity [6]: 2.8; Selectivity [7]: 3.1
67 nM | 280 nM | CN(C)CC1CCCN(CCCn2ccc(-c3ccn4c(-c5ccccc5)cnc4c3)cc2=O)C1 (configuration not stated) | 
52 nM | 410 nM | CNC(=O)N1CCN(Cc2ccc(-c3ccn4c(-c5ccccc5)cnc4c3)cc2)CC1 | 
50 nM |  | c1ccc(-c2ccn3c(-c4cnsc4)cnc3c2)cc1 | 
13 nM | 110 nM | CS(=O)(=O)N1CCN(Cc2ccc(-c3ccn4c(-c5ccccc5)cnc4c3)cc2)CC1 | 

From ChEMBL document CHEMBL1146681, “Design and synthesis of 3,7-diarylimidazopyridines as inhibitors of the VEGF-receptor KDR” (Bioorg Med Chem Lett, 2004)
